# Experimental data: ChEMBL document CHEMBL3046027, “In vitro and in vivo antifungal activity of synthetic pure isothiocyanates against Sclerotinia sclerotiorum” (Pest Manag Sci, 2011)
# How the values were obtained:
# [1] = test system: Sclerotinia sclerotiorum; assay: Fungistatic activity in Sclerotinia sclerotiorum assessed as inhibition of mycelial growth in volatile phase at 588 umol/l measured at 20 degC after 5 days relative to control; type: functional; conditions: 120 h, read-out: GI
# [2] = test system: Sclerotinia sclerotiorum; assay: Fungistatic activity in Sclerotinia sclerotiorum assessed as inhibition of carpogenic germination in volatile phase at 840 umol/l measured at 20 degC after 5 days relative to control; type: functional; conditions: 120 h
# [3] = test system: Sclerotinia sclerotiorum; assay: Antifungal activity against Sclerotinia sclerotiorum assessed as inhibition of mycelial growth in contact phase at 591 umol/l measured at 20 degC after 5 days; type: functional; conditions: 120 h, read-out: GI
# [4] = test system: Sclerotinia sclerotiorum; assay: Antifungal activity against Sclerotinia sclerotiorum assessed as inhibition of mycelial growth in contact phase at 759 umol/l measured at 20 degC after 5 days; type: functional; conditions: 120 h, read-out: GI
# [5] = test system: Sclerotinia sclerotiorum; assay: Antifungal activity against Sclerotinia sclerotiorum assessed as inhibition of germination in volatile phase at 84 umol/l measured at 20 degC after 5 days; type: functional; conditions: AT84, 120 h
# [6] = test system: Sclerotinia sclerotiorum; assay: In vivo antifungal Sclerotinia sclerotiorum in Pepper (Capsicum annuum L. cv. Sera Demre) assessed as inhibition of mycelial growth in volatile phase at 168 umol/L measured after 10 to 14 weeks; type: functional
# [7] = test system: Sclerotinia sclerotiorum; assay: Antifungal activity against Sclerotinia sclerotiorum assessed as inhibition of mycelial growth in contact phase at 2531 umol/l measured at 20 degC after 5 days; type: functional; conditions: 120 h, read-out: GI
# [8] = test system: Sclerotinia sclerotiorum; assay: Fungistatic activity in Sclerotinia sclerotiorum assessed as inhibition of mycelial growth in volatile phase measured at 20 degC after 5 days; type: functional, organism-based; conditions: 120 h
# [9] = test system: Sclerotinia sclerotiorum; assay: Antifungal activity against Sclerotinia sclerotiorum assessed as inhibition of mycelial growth in volatile phase at 42 umol/l measured at 20 degC after 5 days; type: functional; conditions: 120 h, read-out: GI
# [10] = test system: Sclerotinia sclerotiorum; assay: Fungitoxic activity in Sclerotinia sclerotiorum assessed as inhibition of mycelial growth in contact phase at 2531 umol/l measured at 20 degC after 5 days relative to control; type: functional; conditions: 120 h, read-out: GI
# [11] = test system: Sclerotinia sclerotiorum; assay: Fungistatic activity in Sclerotinia sclerotiorum assessed as inhibition of carpogenic germination in volatile phase at 84 umol/l measured at 20 degC after 5 days relative to control; type: functional; conditions: AT84, 120 h
# [12] = test system: Sclerotinia sclerotiorum; assay: Antifungal activity against Sclerotinia sclerotiorum assessed as inhibition of mycelial growth in volatile phase at 588 umol/l measured at 20 degC after 5 days; type: functional; conditions: 120 h, read-out: GI
# [13] = test system: Sclerotinia sclerotiorum; assay: Antifungal activity against Sclerotinia sclerotiorum assessed as inhibition of mycelial growth in contact phase at 844 umol/l measured at 20 degC after 5 days; type: functional; conditions: 120 h, read-out: GI
# [14] = test system: Sclerotinia sclerotiorum; assay: Antifungal activity against Sclerotinia sclerotiorum assessed as inhibition of germination in volatile phase at 253 umol/l measured at 20 degC after 5 days; type: functional; conditions: 120 h
# [15] = test system: Sclerotinia sclerotiorum; assay: Antifungal activity against Sclerotinia sclerotiorum assessed as inhibition of mycelial growth in volatile phase at 422 umol/l measured at 20 degC after 5 days; type: functional; conditions: 120 h, read-out: GI
# [16] = test system: Sclerotinia sclerotiorum; assay: Antifungal activity against Sclerotinia sclerotiorum assessed as inhibition of mycelial growth in volatile phase at 84 umol/l measured at 20 degC after 5 days; type: functional; conditions: 120 h, read-out: GI
# [17] = test system: Sclerotinia sclerotiorum; assay: Antifungal activity against Sclerotinia sclerotiorum assessed as inhibition of germination in volatile phase at 42 umol/l measured at 20 degC after 5 days; type: functional; conditions: 120 h
# [18] = test system: Sclerotinia sclerotiorum; assay: Fungistatic activity in Sclerotinia sclerotiorum assessed as viability in volatile phase at 844 umol/l measured at 20 degC after 5 days relative to control; type: functional; conditions: 120 h, read-out: GI
# [19] = test system: Sclerotinia sclerotiorum; assay: Fungistatic activity in Sclerotinia sclerotiorum assessed as inhibition of carpogenic germination in volatile phase at 422 umol/l measured at 20 degC after 5 days relative to control; type: functional; conditions: 120 h
# [20] = test system: Sclerotinia sclerotiorum; assay: Antifungal activity against Sclerotinia sclerotiorum assessed as inhibition of germination in volatile phase at 844 umol/l measured at 20 degC after 5 days; type: functional; conditions: 120 h
# [21] = test system: Sclerotinia sclerotiorum; assay: Antifungal activity against Sclerotinia sclerotiorum assessed as inhibition of mycelial growth in contact phase at 1688 umol/l measured at 20 degC after 5 days; type: functional; conditions: 120 h, read-out: GI
# [22] = test system: Sclerotinia sclerotiorum; assay: In vivo antifungal Sclerotinia sclerotiorum in Pepper (Capsicum annuum L. cv. Sera Demre) assessed as inhibition of mycelial growth in volatile phase at 84 umol/L measured after 10 to 14 weeks; type: functional
# [23] = test system: Sclerotinia sclerotiorum; assay: Fungistatic activity in Sclerotinia sclerotiorum assessed as inhibition of carpogenic germination in volatile phase at 42 umol/l measured at 20 degC after 5 days relative to control; type: functional; conditions: 120 h
# [24] = test system: Sclerotinia sclerotiorum; assay: Antifungal activity against Sclerotinia sclerotiorum assessed as inhibition of mycelial growth in volatile phase at 840 umol/l measured at 20 degC after 5 days; type: functional; conditions: 120 h, read-out: GI
# [25] = test system: Sclerotinia sclerotiorum; assay: Fungistatic activity in Sclerotinia sclerotiorum assessed as sclerotial viability measured at 20 degC after 5 days; type: functional, organism-based; conditions: 120 h
# [26] = test system: Sclerotinia sclerotiorum; assay: Antifungal activity against Sclerotinia sclerotiorum assessed as inhibition of germination in volatile phase at 422 umol/l measured at 20 degC after 5 days; type: functional; conditions: 120 h
# [27] = test system: Sclerotinia sclerotiorum; assay: Fungistatic activity in Sclerotinia sclerotiorum assessed as inhibition of mycelial growth in contact phase measured at 20 degC after 5 days; type: functional, organism-based; conditions: 120 h
# [28] = test system: Sclerotinia sclerotiorum; assay: Fungistatic activity in Sclerotinia sclerotiorum assessed as inhibition of mycelial growth in contact phase at 1688 umol/l measured at 20 degC after 5 days relative to control; type: functional; conditions: 120 h, read-out: GI
smiles,measurement,setting,value
CCCCN=C=S [BUTYL ISOTHIOCYANATE],inhibition of growth at 588 µM,[1],100%
same,inhibition at 840 µM,[2],92.5%
same,inhibition of growth at 591 µM,[3],5%
same,inhibition of growth at 759 µM,[4],11.7%
same,inhibition at 84 µM,[5],0%
same,inhibition in vivo at 168 µM,[6],63.3%
same,inhibition of growth at 2531 µM,[7],100%
same,EC50,[8],87.3 µM
same,inhibition of growth at 42 µM,[9],22.8%
same,inhibition of growth at 2531 µM,[10],100%
same,inhibition at 84 µM,[11],80%
same,inhibition of growth at 588 µM,[12],72.3%
same,inhibition of growth at 844 µM,[13],29.2%
same,inhibition at 253 µM,[14],13.3%
same,inhibition of growth at 422 µM,[15],70.3%
same,inhibition of growth at 84 µM,[16],48.7%
same,inhibition at 42 µM,[17],0%
same,inhibition of growth at 844 µM,[18],100%
same,inhibition at 422 µM,[19],82.5%
same,inhibition at 844 µM,[20],100%
same,inhibition of growth at 1688 µM,[21],100%
same,inhibition in vivo at 84 µM,[22],31.7%
same,inhibition at 42 µM,[23],77.5%
same,inhibition of growth at 840 µM,[24],100%
same,EC50,[25],403 µM
same,inhibition at 422 µM,[26],46.7%
same,EC50,[27],932 µM
same,inhibition of growth at 1688 µM,[28],100%
